System: patients diagnosed with AQP4-IgG positive NMOSD
Test: Clinical research of the compound of formula (I) in treating neuromyelitis optica spectrum disorder (NMOSD)
Type: in vivo, human
Procedure: Average annualized relapse rate (ARR)=total number of episodes of subjects/(number of subjects*observation time).
Example 1: Clinical Research of the Compound of Formula (I) in Treating Neuromyelitis Optica Spectrum Disorder (NMOSD)
Tablets of the compound of formula (I), specification: 100 mg/tablet.
1) Male or female from 18 to 75 years old (including 18 and 75 years old);
2) Patients diagnosed with AQP4-IgG positive NMOSD according to the 2015 IPND diagnostic criteria;
3) Requirements for history of relapse: 2 or more relapses of NMOSD requiring rescue therapy within 1 year before baseline, the rescue therapy can include IV glucocorticoid, plasma exchange, and/or intravenous immune globulin (IVIG);
4) Subjects must have been on stable treatment (if any) for more than 1 month before starting test drug treatment, defined as follows: • the amount of immunosuppressant (such as tacrolimus, azathioprine, mycophenolate) and/or oral corticosteroid must be stable or in the process of reduction, and the acute phase rescue therapy (such as IV glucocorticoid, plasma exchange, and/or intravenous immunoglobulin) must be completed for more than 1 month.
The test drug was administered to the qualified subjects in the morning on an empty stomach, once a day, one tablet at a time, and 100 mg per tablet.
At present, the study has completed the enrollment of all 10 subjects, and the average annualized relapse rate (ARR=the total number of episodes of subjects/(number of subjects*observation time)) of all subjects before enrollment was 2.1. By now, an annualized relapse rate of 0.7 for existing subjects after baseline medication has been observed. A patient with a 7-year history of NMOSD had severe symptoms (unable to stand) before participating in the trial. […] At the 7th week of medication, the patient could walk more than 20 meters with assistance, and could substantially take care of themself.

What does the source list for `CC#CC(=O)N1CC[C@@H](n2cc(-c3ccc(Oc4c(F)cccc4F)cc3)c3c(N)n[nH]c(=O)c32)C1` [compound of formula (I), (R)-4-amino-1-(1-(but-2-ynoyl)pyrrolidin-3-yl)-3-(4-(2,6-difluorophenoxy)phenyl)-1,6-dihydro-7H-pyrrolo[2,3-d]pyridazin-7-one]?
annualized relapse rate (ARR) after baseline medication (AQP4-IgG positive NMOSD subjects (10 enrolled), 100 mg tablet once a day, morning, empty stomach, average ARR before enrollment was 2.1, interim (by now)): 0.7; mobility of patient (patient, 7-year history of NMOSD, unable to stand before trial, after 4 weeks of administration, could stand up and walk several steps with assistance): significantly improved mobility; walking distance with assistance (same patient, at the 7th week of medication, could substantially take care of themself): more than 20 meters

Source: patent US20230270743A1, “USE OF BTK INHIBITORS IN THE TREATMENT OF DISEASES” (JIANGSU HENGRUI PHARMACEUTICALS CO., LTD., priority 2020, published 2023)
